This assay addresses human 5-HT2C receptor (Homo sapiens, UniProt P28335, I156V/I160V/N158S). In words: cell-based.
Sequence of human 5-HT2C receptor (P28335 33-458 I156V/N158S/I160V limits assumed): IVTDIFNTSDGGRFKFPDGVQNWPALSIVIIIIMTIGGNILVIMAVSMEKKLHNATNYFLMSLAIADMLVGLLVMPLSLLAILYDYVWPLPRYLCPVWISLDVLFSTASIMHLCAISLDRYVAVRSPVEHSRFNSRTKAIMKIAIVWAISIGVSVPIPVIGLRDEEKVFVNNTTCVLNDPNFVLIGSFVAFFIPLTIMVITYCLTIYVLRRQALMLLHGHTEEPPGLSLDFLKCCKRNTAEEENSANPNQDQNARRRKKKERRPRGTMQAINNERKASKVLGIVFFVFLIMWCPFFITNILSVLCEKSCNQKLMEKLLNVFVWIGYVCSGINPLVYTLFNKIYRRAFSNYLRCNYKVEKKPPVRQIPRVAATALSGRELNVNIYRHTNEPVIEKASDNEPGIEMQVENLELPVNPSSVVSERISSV
What is called EC50 is the midpoint of the concentration-response curve. The compound `c1ccc2[nH]c(C3CN(c4c5c(nc6ccnn46)CCNCC5)C3)nc2c1` [Example 34] had an EC50 of 611 nM. In turn, `O=C(C1CN(c2c3c(nc4ccnn24)CCNCC3)C1)N1CCCCC(F)(F)C1` [Example 41, (3,3-Difluoro-perhydro-azepin-1-yl)-[1-(6,7,8,9-tetrahydro-5H-1,4,7,10a-tetraaza-cyclohept[f]inden-10-yl)-azetidin-3-yl]-methanone] registered an EC50 of 7 nM. Compared with the last compound, the EC50 is about 87-fold lower. Next, `CN1CCc2nc3ccnn3c(N3CC(C(=O)NC4CC(C)(C)N(C)C(C)(C)C4)C3)c2CC1` [Example 36.25]: 202 nM; `COc1ccc(OC2CN(c3c4c(nc5ccnn35)CCNCC4)C2)c(F)c1` [Example 35.34]: 65 nM; `O=C(C1CN(c2c3c(nc4ccnn24)CCNCC3)C1)N1CCCC(C2CCCCC2)C1` (stereo not drawn) [Example 31.70]: 175 nM.

`CN(Cc1cccc(C(F)(F)F)c1)C(=O)C1CN(c2c3c(nc4ccnn24)CCNCC3)C1` [Example 31.149] registered an EC50 of 45 nM. Against the preceding compound, the EC50 is about 3.9-fold lower. Next, `O=C(C1CN(c2c3c(nc4ccnn24)CCNCC3)C1)N1CCc2sccc2C1` [Example 31.36]: 57 nM; `c1ccc2c(c1)nc(C1CN(c3c4c(nc5ccnn35)CCNCC4)C1)n2C1CCCC1` [Example 34.29]: 96 nM.

For `O=C(NCC1CCC1)C1CN(c2c3c(nc4ccnn24)CCNCC3)C1` [Example 37.50], the 50% effective concentration (EC50) came to 51 nM. The value for `c1cncc(OC2CN(c3c4c(nc5ccnn35)CCNCC4)C2)c1` [Example 35.42] was 212 nM; that for `Cc1ccc(F)c(OCC2CN(c3c4c(nc5ccnn35)CCNCC4)C2)c1F` [Example 15.24] was 54 nM; that for `O=C(C1CN(c2c3c(nc4c(Br)cnn24)CCNCC3)C1)N1CCC2(CCOC2)CC1` [Example 31.137] was 71 nM. The value for `CCCCN1CCCN(C(=O)C2CN(c3c4c(nc5ccnn35)CCN(C)CC4)C2)CC1` [Example 36.36] was 256 nM; that for `Fc1cc(OCC2CN(c3c4c(nc5ccnn35)CCNCC4)C2)ccc1Cl` [Example 15.13] was 28 nM. For the compound `O=C(C1CN(c2c3c(nc4ccnn24)CCNCC3)C1)N1CCCC(F)(F)C1` [Example 31.201], a half-maximal response (EC50) required 24 nM. On to `O=C(C1CN(c2c3c(nc4ccnn24)CCNCC3)C1)N1CCC(c2cccc(Cl)c2)CC1` [Example 31.111], for which the midpoint of the response, the EC50, lay at 56 nM. The value for `O=C(C1CN(c2c3c(nc4ccnn24)CCNCC3)C1)N1CCCC(c2ccccc2)(c2ccccc2)C1` [Example 31.221] was 625 nM. Next, `CNCCN(C)C(=O)C1CN(c2c3c(nc4ccnn24)CCNCC3)C1` [Example 37.20]: 26 nM; `O=C(C1CN(c2c3c(nc4ccnn24)CCNCC3)C1)N1CC=CCC1` [Example 31.178]: 109 nM; `CC(=O)N(C)c1ccc(OC2CN(c3c4c(nc5ccnn35)CCNCC4)C2)cc1` [Example 35.28]: 189 nM.

Consider `O=C(C1CN(c2c3c(nc4ccnn24)CCNCC3)C1)N1CCC2(CC1)OCc1ccccc12` [Example 31.153], for which a half-maximal effect (EC50) was put at 86 nM.

On to `Cc1ccccc1OC1CN(c2c3c(nc4ccnn24)CCNCC3)C1` [Example 35.5], for which the EC50 came to 112 nM. Next, `COc1cc(Cl)ccc1OCC1CN(c2c3c(nc4ccnn24)CCNCC3)C1` [Example 15.26]: 163 nM; `O=C(C1CN(c2c3c(nc4ccnn24)CCNCC3)C1)N1CCC(Nc2ccccc2)CC1` [Example 37.43]: 6 nM. In turn, `CC(C)CNC(=O)C1CN(c2c3c(nc4ccnn24)CCNCC3)C1` [Example 37.78] had an EC50 of 82 nM. This EC50 is about 14-fold higher than that of the compound before. Next, `O=C(C1CN(c2c3c(nc4ccnn24)CCNCC3)C1)N1CC2CC2(c2cccs2)C1` (stereo not drawn) [Example 31.231]: 27 nM; `CC1(NC(=O)C2CN(c3c4c(nc5ccnn35)CCNCC4)C2)CCCC1` [Example 37.80]: 124 nM. Next, `CC(C)NC1CCN(C(=O)C2CN(c3c4c(nc5ccnn35)CCNCC4)C2)CC1` [Example 37.21]: 2 nM; `CC1(C)CCN(C(=O)C2CN(c3c4c(nc5c(Br)cnn35)CCNCC4)C2)C1` [Example 31.135]: 46 nM; `CC1CN(C(=O)C2CN(c3c4c(nc5c(Br)cnn35)CCNCC4)C2)CC(C)O1` (stereo not drawn) [Example 31.140]: 65 nM. Next, `O=C(NCc1ccccc1)C1CCN(c2c3c(nc4ccnn24)CCNCC3)CC1` [Example 1.24]: 1310 nM. In the case of `CC(C)c1ccc(CN(C)C(=O)C2CN(c3c4c(nc5ccnn35)CCNCC4)C2)cc1` [Example 31.163], the EC50 was determined as 108 nM. Next, `CC1(C)CC(NC(=O)C2CN(c3c4c(nc5ccnn35)CCNCC4)C2)CC(C)(C)N1` [Example 37.7]: 15 nM. The value for `COc1ccc2c(c1)CCN2C(=O)C1CN(c2c3c(nc4c(C)cnn24)CCNCC3)C1` [Example 31.247] was 28 nM; that for `CC1(C)CCC(NC(=O)C2CN(c3c4c(nc5ccnn35)CCNCC4)C2)CC1` [Example 37.53] was 20 nM. On to `O=C(NC1CCCOC1)C1CN(c2c3c(nc4ccnn24)CCNCC3)C1` (stereo not drawn) [Example 37.49], for which the EC50 is 44 nM. The value for `Brc1ccc(OC2CN(c3c4c(nc5ccnn35)CCNCC4)C2)cc1` [Example 35.2] was 184 nM.

Consider `C=C1CCN(C(=O)C2CN(c3c4c(nc5ccnn35)CCNCC4)C2)CC1` [Example 31.229], for which the EC50 was found to be 108 nM. Next, `O=C(C1CN(c2c3c(nc4ccnn24)CCNCC3)C1)N1CCN(C2CC2)CC1` [Example 37.32]: 22 nM; `Fc1cccc(OCC2CN(c3c4c(nc5ccnn35)CCNCC4)C2)c1` [Example 15.19]: 21 nM. The value for `O=C(C1CN(c2c3c(nc4ccnn24)CCNCC3)C1)N1CC(Cc2ccccc2)C1` [Example 31.119] was 82 nM; that for `CCOc1ccccc1OC1CN(c2c3c(nc4ccnn24)CCNCC3)C1` [Example 35.37] was 47 nM.

For the origin of these results see patent publication US20120165304A1, “6,7,8,9-Tetrahydro-5H-1,4,7,10a-tetraaza-cyclohept[f]indene derivatives, pharmaceutical compositions containing these compounds, their use and processes for preparing them” (BOEHRINGER INGELHEIM INTERNATIONAL GMBH, priority 2008, published 2012).
